In patent US12077503B2, “Substituted cyclic amides and their use as herbicides” (FMC CORPORATION, priority 2015, dated 2024):
Like-named read-outs stand apart in the source and are kept apart here.

Experiments:
Assay type in all cases: in vivo
Kochia (Kochia scoparia) [1] = test: Test A preemergence; conditions: Bassia scoparia, pre-emergence, 240 h, read-out: Plant response rating, Kochia; for pest or weed control at 500 g/ha: 500 g ai/ha; for pest or weed control at 125 g/ha: 125 g ai/ha
Outline: (§1)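 Seeded soil received test chemicals as a preemergence directed spray, and seedlings at one to two leaves, 2–10 cm tall, received them postemergence, in a non-phytotoxic, surfactant-containing solvent mixture. Pots were held in a greenhouse for approximately 10 d, then rated for injury from 0, no effect, to 100, complete control.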

[2] = tested on: barnyardgrass (Echinochloa crus-galli); test: Test A preemergence; conditions: Echinochloa crus-galli, pre-emergence, 240 h, read-out: Plant response rating, Barnyardgrass; for pest or weed control at 500 g/ha: 500 g ai/ha; for pest or weed control at 125 g/ha: 125 g ai/ha
Outline: as §1

[3] = tested on: giant foxtail (Setaria faberii); test: Test A preemergence; conditions: Setaria faberi, pre-emergence, 240 h, read-out: Plant response rating, Foxtail, Giant; for pest or weed control at 500 g/ha: 500 g ai/ha; for pest or weed control at 125 g/ha: 125 g ai/ha
Outline: as §1

[4] = tested on: pigweed (Amaranthus retroflexus); test: Test A preemergence; conditions: Amaranthus retroflexus, pre-emergence, 240 h, read-out: Plant response rating, Pigweed; for pest or weed control at 500 g/ha: 500 g ai/ha; for pest or weed control at 125 g/ha: 125 g ai/ha
[5] = tested on: ragweed (common ragweed, Ambrosia elatior); test: Test A preemergence; conditions: Ambrosia artemisiifolia, pre-emergence, 240 h, read-out: Plant response rating, Ragweed; for pest or weed control at 500 g/ha: 500 g ai/ha; for pest or weed control at 125 g/ha: 125 g ai/ha
Outline: as §1

[6] = tested on: ryegrass, Italian (Italian ryegrass, Lolium multiflorum); test: Test A preemergence; conditions: Lolium multiflorum, pre-emergence, 240 h, read-out: Plant response rating, Ryegrass, Italian; for pest or weed control at 125 g/ha: 125 g ai/ha
Outline: as §1

[7] = tested on: Galium (catchweed bedstraw, Galium aparine); test: Test A postemergence; conditions: Galium, post-emergence, 240 h, read-out: Plant response rating, Galium; for pest or weed control at 125 g/ha: 125 g ai/ha
Outline: as §1

Kochia (Kochia scoparia) [8] = test: Test A postemergence; conditions: Bassia scoparia, post-emergence, 240 h, read-out: Plant response rating, Kochia; for pest or weed control at 125 g/ha: 125 g ai/ha
Outline: as §1

corn (Zea mays) = test: Test A postemergence; conditions: Zea mays, post-emergence, 240 h; for Corn plant response rating (crop injury, 0 = no effect, 100 = complete kill) at 125 g/ha: 125 g ai/ha
Outline: as §1

[9] = tested on: pigweed (Amaranthus retroflexus); test: Test A postemergence; conditions: Amaranthus retroflexus, post-emergence, 240 h, read-out: Plant response rating, Pigweed; for pest or weed control at 125 g/ha: 125 g ai/ha
Outline: as §1

[10] = tested on: barnyardgrass (Echinochloa crus-galli); test: Test B flooded paddy test; conditions: Echinochloa crus-galli, Flood, 250 g ai/ha
Outline: (§2)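 Flooding to 3 cm over soil accompanied treatment, which consisted of adding compound to the standing water around 2-leaf plants; depth was then maintained. Visual assessment versus controls followed at 13 to 15 d (scale 0–100, 0 meaning no effect).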

[11] = tested on: ducksalad (Heteranthera limosa); test: Test B flooded paddy test; conditions: Heteranthera limosa, Flood, 250 g ai/ha
Outline: as §2

rice (Oryra sativa) = test: Test B flooded paddy test; conditions: Oryza sativa, Flood, 250 g ai/ha
Outline: as §2

[12] = tested on: sedge, umbrella (small-flower umbrella sedge, Cyperus difformis); test: Test B flooded paddy test; conditions: Cyperus difformis, Flood, 250 g ai/ha
Outline: as §2

[13] = preemergence, 0 to 100 scale (0 no effect, 100 complete control)
[14] = Preemergence, 0 to 100 scale (0 no effect, 100 complete control)
[15] = Postemergence, visual injury after approx. 10 d, 0 to 100 scale, 0 no effect, 100 complete control
[16] = Postemergence, 500 g ai/ha, visual injury, 0 to 100 scale (0 no effect, 100 complete control), approx. 10 d
[17] = preemergence, visual rating after approx. 10 d, 0 to 100 scale where 0 is no effect and 100 is complete control
[18] = preemergence, 0 to 100 scale, 0 = no effect, 100 = complete control
[19] = postemergence, visual injury after approximately 10 d, 0 to 100 scale (0 no effect, 100 complete control)

O=C1NC[C@H](c2cncc(C(F)(F)F)c2)[C@H]1C(=O)Nc1cccc(F)c1F [Compound 1394]
pest or weed control at 500 g/ha (Kochia (Kochia scoparia) [1]; [13]): 60% | pest or weed control at 125 g/ha (Kochia (Kochia scoparia) [1]; [14]): 40% | pest or weed control at 500 g/ha [2, 13]: 90% | pest or weed control at 125 g/ha [2, 14]: 90% | pest or weed control at 500 g/ha [3, 13]: 90% | pest or weed control at 125 g/ha [3, 14]: 90% | pest or weed control at 500 g/ha [4, 13]: 30% | pest or weed control at 125 g/ha [4, 14]: 0% | pest or weed control at 500 g/ha [5, 13]: 80% | pest or weed control at 125 g/ha [5, 14]: 20% | pest or weed control at 500 g/ha ([6]; 500 g ai/ha, preemergence, 0 to 100 scale (0 no effect, 100 complete control)): 60% | pest or weed control at 125 g/ha [6, 14]: 50% | pest or weed control at 125 g/ha [7, 15]: 50% | pest or weed control at 500 g/ha [7, 16]: 60% | pest or weed control at 125 g/ha (Kochia (Kochia scoparia) [8]; [15]): 0% | pest or weed control at 500 g/ha (Kochia (Kochia scoparia) [8]; [16]): 0% | Corn plant response rating (crop injury, 0 = no effect, 100 = complete kill) at 125 g/ha (corn (Zea mays); [15]): 40% | Corn plant response rating (crop injury, 0 = no effect, 100 = complete kill) at 500 g/ha (corn (Zea mays); [16]): 70% | pest or weed control at 125 g/ha [9, 15]: 0% | pest or weed control at 500 g/ha [9, 16]: 20% | pest or weed control at 250 g/ha ([10]; 360 h, visually evaluated after 13 to 15 d, read-out: Plant response rating, Barnyardgrass (0 to 100 scale where 0 is no effect and 100 is complete control)): 40% | pest or weed control at 250 g/ha ([11]; 360 h, visually evaluated after 13 to 15 d, read-out: Plant response rating, Ducksalad (0 to 100 scale where 0 is no effect and 100 is complete control)): 75% | pest or weed control at 250 g/ha (rice (Oryra sativa); 360 h, visually evaluated after 13 to 15 d, read-out: Plant response rating, Rice (0 to 100 scale where 0 is no effect and 100 is complete control)): 10% | pest or weed control at 250 g/ha ([12]; 360 h, visually evaluated after 13 to 15 d, read-out: Plant response rating, Sedge, Umbrella (0 to 100 scale where 0 is no effect and 100 is complete control)): 0%

Cc1ccc([C@H]2CNC(=S)[C@@H]2C(=O)Nc2cccc(F)c2F)cc1C [Compound 765]
pest or weed control at 125 g/ha (Kochia (Kochia scoparia) [1]; [17]): 0% | pest or weed control at 500 g/ha (Kochia (Kochia scoparia) [1]; [18]): 0% | pest or weed control at 125 g/ha [2, 17]: 100% | pest or weed control at 500 g/ha [2, 18]: 100% | pest or weed control at 125 g/ha [3, 17]: 30% | pest or weed control at 500 g/ha [3, 18]: 80% | pest or weed control at 125 g/ha [4, 17]: 0% | pest or weed control at 500 g/ha [4, 18]: 0% | pest or weed control at 125 g/ha [5, 17]: 0% | pest or weed control at 500 g/ha [5, 18]: 30% | pest or weed control at 125 g/ha [6, 17]: 0% | pest or weed control at 125 g/ha [7, 19]: 0% | pest or weed control at 125 g/ha (Kochia (Kochia scoparia) [8]; [19]): 0% | Corn plant response rating (crop injury, 0 = no effect, 100 = complete kill) at 125 g/ha (corn (Zea mays); [19]): 0% | pest or weed control at 125 g/ha [9, 19]: 0% | pest or weed control at 250 g/ha ([10]; scale of 0 to 100 where 0 is no effect and 100 is complete control, read-out: Barnyardgrass plant response rating): 40% | pest or weed control at 250 g/ha ([11]; scale of 0 to 100 where 0 is no effect and 100 is complete control, read-out: Ducksalad plant response rating): 100% | pest or weed control at 250 g/ha (rice (Oryra sativa); scale of 0 to 100 where 0 is no effect and 100 is complete control, read-out: Rice plant response rating): 20% | pest or weed control at 250 g/ha ([12]; scale of 0 to 100 where 0 is no effect and 100 is complete control, read-out: Sedge, Umbrella plant response rating): 0%
